Test results: ChEMBL document CHEMBL1156516, “Protein kinase C epsilon regulates gamma-aminobutyrate type A receptor sensitivity to ethanol and benzodiazepines through phosphorylation of gamma2 subunits” (J Biol Chem, 2007)
Where a chain is given by its changes, count along the chain named. Calls of active or inactive are those of the source. The rule behind the calls is not given here.

How the values were obtained:
[1] = target: T1, Gamma-aminobutyric acid receptor subunit alpha-1 (Homo sapiens) (UniProt P14867); details: HEK293
T1 sequence (whole entry): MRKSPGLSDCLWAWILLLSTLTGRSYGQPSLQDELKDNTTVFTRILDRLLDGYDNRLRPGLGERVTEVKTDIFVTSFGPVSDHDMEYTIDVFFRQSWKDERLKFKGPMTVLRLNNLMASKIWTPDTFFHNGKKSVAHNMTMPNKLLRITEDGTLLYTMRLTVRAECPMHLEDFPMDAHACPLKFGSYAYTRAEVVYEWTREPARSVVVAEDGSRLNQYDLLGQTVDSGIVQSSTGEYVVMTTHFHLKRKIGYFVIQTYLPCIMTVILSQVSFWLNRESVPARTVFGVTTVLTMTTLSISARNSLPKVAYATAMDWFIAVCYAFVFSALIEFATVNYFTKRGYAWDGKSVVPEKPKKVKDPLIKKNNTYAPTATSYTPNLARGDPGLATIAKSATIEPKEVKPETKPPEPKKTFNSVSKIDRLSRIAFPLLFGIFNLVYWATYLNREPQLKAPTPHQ

HEK293 [2] = details: Homo sapiens
[3] = target: T2, GABA-A receptor; alpha-1/beta-2/gamma-2 (Homo sapiens) (UniProt P14867+P47870+P18507); details: HEK293
[4] = target: T2, GABA-A receptor; alpha-1/beta-2/gamma-2 (Homo sapiens); details: HEK293; remark: listed apart in the source
HEK293 [5] = details: Homo sapiens; remark: listed apart in the source
[6] = target: T3, Protein kinase C epsilon type (Homo sapiens, UniProt Q02156); assay: Inhibition of human PKCepsilon
T3 sequence (Q02156 whole entry): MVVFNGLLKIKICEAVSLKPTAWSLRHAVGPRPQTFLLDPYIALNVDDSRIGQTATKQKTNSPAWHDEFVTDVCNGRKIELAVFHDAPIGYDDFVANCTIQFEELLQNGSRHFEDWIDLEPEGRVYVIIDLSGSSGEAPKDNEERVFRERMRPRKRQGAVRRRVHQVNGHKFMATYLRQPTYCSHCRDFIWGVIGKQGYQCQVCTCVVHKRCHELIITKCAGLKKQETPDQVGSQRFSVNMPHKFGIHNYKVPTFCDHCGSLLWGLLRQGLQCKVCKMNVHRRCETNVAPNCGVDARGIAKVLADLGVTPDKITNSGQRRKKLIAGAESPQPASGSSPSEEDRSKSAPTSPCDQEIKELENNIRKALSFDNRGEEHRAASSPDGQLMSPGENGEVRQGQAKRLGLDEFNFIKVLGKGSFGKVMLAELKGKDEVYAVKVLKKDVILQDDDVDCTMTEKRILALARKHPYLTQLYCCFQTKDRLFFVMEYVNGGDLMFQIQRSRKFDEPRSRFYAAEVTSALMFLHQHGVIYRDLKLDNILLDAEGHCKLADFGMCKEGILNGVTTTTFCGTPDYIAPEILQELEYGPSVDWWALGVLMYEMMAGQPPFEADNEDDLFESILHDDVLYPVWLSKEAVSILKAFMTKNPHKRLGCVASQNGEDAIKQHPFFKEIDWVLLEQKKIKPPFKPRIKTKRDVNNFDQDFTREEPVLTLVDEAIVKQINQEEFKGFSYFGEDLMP

[7] = target: Protein kinase C epsilon type (Homo sapiens, UniProt Q02156, M486A); assay: (§1) Inhibition of human PKCepsilon type M486A mutant
HEK293 [8] = assay: Activity of human GABA alpha-1-beta-2-gamma-2S327 receptor in HEK293 cells expressing as-PKCepsilon cells assessed as induction of ethanol induced GABA current; format: cell-based
[9] = target: Protein kinase C delta type (Homo sapiens, UniProt Q05655); assay: Inhibition of human PKCdelta
[10] = target: Protein kinase C gamma type (Homo sapiens, UniProt P05129); assay: Inhibition of human PKCgamma
HEK293 [11] = assay: Activity of human GABA alpha-1-beta-2-gamma-2L S327A mutant in HEK293 cells expressing as-PKCepsilon assessed as inhibition of ethanol induced GABA current at 30 uM; format: cell-based
Mus musculus [12] = assay: Induction of rotarod ataxia in PKCepsilon deficient mouse at 1 mg/kg; format: functional, organism-based; set-up: dose 1 mg/kg
[13] = system: T4, Protein kinase C epsilon type (Homo sapiens), Q02156 [M486A]; assay: as §1
T4 sequence (whole entry): T3 sequence (Q02156 whole entry) with M486A

Mus musculus [14] = species: Mus musculus; assay: Activity of human GABA alpha-1-beta-2-gamma-2S327 receptor in wild type mouse assessed as ethanol induced GABA current

Protein kinase C epsilon type (Homo sapiens, UniProt Q02156, M486A), sequence (Q02156 whole entry M486A): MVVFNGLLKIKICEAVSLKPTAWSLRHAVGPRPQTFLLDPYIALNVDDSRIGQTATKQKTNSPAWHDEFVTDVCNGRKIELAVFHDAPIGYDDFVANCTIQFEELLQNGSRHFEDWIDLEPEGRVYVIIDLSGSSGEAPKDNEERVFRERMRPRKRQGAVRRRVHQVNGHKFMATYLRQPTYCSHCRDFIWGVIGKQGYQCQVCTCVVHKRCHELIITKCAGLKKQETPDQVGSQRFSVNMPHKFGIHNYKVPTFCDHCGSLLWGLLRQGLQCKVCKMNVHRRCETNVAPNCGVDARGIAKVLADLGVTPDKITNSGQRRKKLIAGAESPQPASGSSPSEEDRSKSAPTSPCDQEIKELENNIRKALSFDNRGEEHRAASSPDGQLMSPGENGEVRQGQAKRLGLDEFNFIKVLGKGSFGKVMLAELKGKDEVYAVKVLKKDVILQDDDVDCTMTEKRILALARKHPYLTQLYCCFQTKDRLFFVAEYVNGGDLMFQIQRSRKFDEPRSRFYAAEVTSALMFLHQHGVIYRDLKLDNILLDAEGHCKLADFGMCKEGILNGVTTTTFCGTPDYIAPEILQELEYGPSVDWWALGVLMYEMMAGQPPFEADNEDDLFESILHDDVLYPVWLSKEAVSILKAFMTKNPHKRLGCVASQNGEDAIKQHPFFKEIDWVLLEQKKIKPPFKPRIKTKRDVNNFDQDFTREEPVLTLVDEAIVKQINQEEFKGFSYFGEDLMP
Protein kinase C delta type, sequence (Q05655 whole entry): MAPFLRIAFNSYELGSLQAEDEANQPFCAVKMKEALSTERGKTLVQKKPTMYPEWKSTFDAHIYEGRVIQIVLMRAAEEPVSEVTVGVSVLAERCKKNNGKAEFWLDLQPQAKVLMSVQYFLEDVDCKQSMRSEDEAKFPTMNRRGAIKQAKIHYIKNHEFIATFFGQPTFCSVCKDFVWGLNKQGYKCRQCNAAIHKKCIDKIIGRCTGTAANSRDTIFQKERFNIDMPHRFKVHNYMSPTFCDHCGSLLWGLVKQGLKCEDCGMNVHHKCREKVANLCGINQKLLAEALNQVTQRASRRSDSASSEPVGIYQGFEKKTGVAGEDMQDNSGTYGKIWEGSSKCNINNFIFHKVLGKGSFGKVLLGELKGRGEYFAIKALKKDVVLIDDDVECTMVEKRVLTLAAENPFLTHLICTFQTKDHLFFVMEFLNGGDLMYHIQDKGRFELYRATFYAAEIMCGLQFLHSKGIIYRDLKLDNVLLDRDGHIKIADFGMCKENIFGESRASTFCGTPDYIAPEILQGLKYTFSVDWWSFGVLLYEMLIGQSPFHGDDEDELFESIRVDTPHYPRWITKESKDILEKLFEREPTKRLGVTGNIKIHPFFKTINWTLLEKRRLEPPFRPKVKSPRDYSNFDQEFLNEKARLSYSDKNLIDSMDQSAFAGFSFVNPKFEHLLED

SMILES: CN1C(=O)CN=C(c2ccccc2F)c2cc([N+](=O)[O-])ccc21
- logEC50 [1]: 1.99
- logEC50 (HEK293 [2]): 1.8
- logEC50 [3]: 1.46
- logEC50 [4]: 1.46
- logEC50 (HEK293 [5]): 1.59

SMILES: CC(C)(C)n1nc(-c2cccc3ccccc23)c2c(N)ncnc21
- IC50 [6]: > 100000 nM
- IC50 [7]: 21 nM
- Activity (HEK293 [8]): Active
- IC50 [9]: > 100000 nM
- IC50 [10]: > 100000 nM

SMILES: CN1CCc2cc3c(cc2[C@H]1[C@@H]1OC(=O)c2c1ccc1c2OCO1)OCO3
- Activity (HEK293 [11]): Active

SMILES: Cc1ccc(-c2nc3ccc(C)cn3c2CC(=O)N(C)C)cc1
- Activity (Mus musculus [12]): Active
- Activity [13]: Active

SMILES: CN(C)CCCn1cc(C2=C(c3c[nH]c4ccccc34)C(=O)NC2=O)c2ccccc21 [GF-109203]
- IC50 [6]: 6 nM
- IC50 [7]: 12 nM
- IC50 [9]: 32 nM
- IC50 [10]: 30 nM

SMILES: CN1C(=O)CN=C(c2ccccc2)c2cc(Cl)ccc21
- Activity (Mus musculus [14]): 75%
